According to patent US7311919B2, “Agents for treating osteoporosis and inhibiting osteoclast formation” (Simpson Biotech Co., Ltd., priority 2003, dated 2007):

Test system: osteoclasts
Test: Osteoclast formation in co-culture of myelocytes and osteoblasts (TRAP staining)
Type: cell-based
Details: 2 U/ml
Protocol: Myelocytes and osteoblasts were co-cultured in vitro and the numbers of osteoclasts formed were measured. Myelocytes will differentiate into osteoclasts expressing tartrate-resisted acidic phosphatase (TRAP) when vitamin D is present in the coculture. These osteoclasts could be identified by staining for TRAP. Therefore the development of osteoclasts could be assayed by co-culturing myelocytes with osteoblasts.
Osteoblasts and, myelocytes were co-cultured in 24-well plate. PTH (100 ng/ml), 1α, 25 (OH)2VD3 (10^−8 M), water extraction of the mycelium of C. Sinensis 3 mg/ml, 300 μg/ml, 30 μg/ml, 3 μg/ml or Elcatonin 2 U/ml were added. Samples were numbered No. 1˜No. 6. Each sample was cultured in 4 wells. Culture was maintained for 6 days with medium changed every two days.
After coculturing, TRAP-positive cells were stained to dark red color. The numbers of TRAP-positive osteoclasts that have more than 3 nucleuses were counted. The average numbers of osteoclasts from 4 samples were the number of osteoclasts.
The numbers of osteoclasts in the 1α, 25 (OH)2D3 sample was considered 100%. The percentage of osteoclasts formed of experimental group was calculated using formula 1. Student's t-test was used to examine the significance.
The formation of osteoclasts (%) osteoclast cell numbers/osteoclast cell numbers in medium with 1α,25(OH)2D3×100 (formula 1)

Elcatonin
Formation of osteoclasts (%) (1α,25(OH)2D3 sample = 100%): 13.8% | Average Osteoclast cell numbers (n = 4) (6 days co-culture): 113.0
